Laboratory results reported in US20240100020A1, “MEDICINE FOR RELIEVING OR E[…] […] AND PREPARATION METHOD THEREFOR” (Shenzhen ScienCare Pharmaceutical Co., Ltd., priority 2020, published 2024).

System: Rats
Experiment: Addiction of tramadol and clonidine tablets and compound tablets (withdrawal after 30 days of administration)
Conditions: for Number of jumps and body weight loss compared with the blank control group (in words): after 30 consecutive days of administration; for Body weight loss / Number of jumps: within one week after withdrawal
Description: Rats weighing approximately 150 g, half male and half female, were taken and randomly divided into 10 groups, that is, a blank control group, a morphine group, a tramadol group, a clonidine group, and compound tablet groups 1 to 6 (the rats in the compound tablet group 1 were administered with the compound tablets of Example 1, the rats in the compound tablet group 2 were administered with the compound tablets of Example 2, the rats in the compound tablet group 3 were administered with the compound tablets of Example 3, the rats in the compound tablet group 4 were administered with the compound tablets of Example 6, the rats in the compound tablet group 5 were administered with the compound tablets of Example 7, and the rats in the compound tablet group 6 were administered with the compound tablets of Example 10).
The rats were administered 3 times a day for 30 days. Administration methods were as follows: (1) the blank control group: PO (oral administration); and 0 mg/kg/time; (2) the morphine group: ip (intraperitoneal injection); and 5 mg/kg/time in week 1, 10 mg/kg/time in week 2, 20 mg/kg/time in week 3, and 30 mg/kg/time from day 22 to day 30; (3) the tramadol group: PO; and 25 mg/kg/time in week 1, 50 mg/kg/time in week 2, 100 mg/kg/time in week 3, and 200 mg/kg/time from day 22 to day 30; (4) the clonidine group: PO; and 0.075 mg/kg/time in week 1, 0.15 mg/kg/time in week 2, 0.3 mg/kg/time in week 3, and 0.6 mg/kg/time from day 22 to day 30; (5) the compound tablet groups: PO; and 25 mg/kg/time in week 1, 50 mg/kg/time in week 2, 100 mg/kg/time in week 3, and 200 mg/kg/time from day 22 to day 30. Withdrawal symptoms and body weight changes within one week after withdrawal of the rats in each group were observed.

[1] = ip 3 times a day for 30 days, 5/10/20/30 mg/kg/time rising by week
[2] = PO 3 times a day for 30 days, 25/50/100/200 mg/kg/time rising by week

| SMILES | Number of jumps and body weight loss compared with the blank control group (in words) | Body weight loss [1] [g] | Number of jumps [1] | Body weight loss [2] [g] | Number of jumps [2] |
| --- | --- | --- | --- | --- | --- |
| CN1CC[C@]23c4c5ccc(O)c4O[C@H]2[C@@H](O)C=C[C@H]3[C@H]1C5 [Morphine group, morphine] | extremely significant differences | 10.1 ± 2.1 | 20.1 ± 2.1 | – | – |
| COc1cccc(C2(O)CCCCC2CN(C)C)c1 (stereo not drawn) [Tramadol group, tramadol] | extremely significant differences | – | – | 9.6 ± 2.3 | 17.3 ± 1.9 |
